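Results reflect a 48-hour exposure of cells in 96-well plates to compound at five concentrations. GI50 is the concentration that inhibits growth by half.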 Calls of active or inactive are those of the source. Cut-off read from the data, not from the text of the source: active = GI50 up to about 1.1 µM and inactive = higher. Where a SMILES comes first, the peptide text is derived from it. [ ]: non-standard residue; d: D form. The star is where a group is joined. Iva = CC[C](C)(N)C(=O)O; Boc = CC(C)(C)OC(=O)*; X54 = C1CCC(=NO*)C1
Tests used:
Assay in all cases: NCI anticancer screen, dose series, 48 h
[1] = test system: MDA-MB-231
[2] = test system: SF-539
[3] = test system: SF-295
[4] = test system: 786-0
[5] = test system: MCF7
[6] = test system: MDA-N
[7] = test system: NCI/ADR-RES
[8] = test system: HCC 2998
[9] = test system: SNB-75
[10] = test system: ACHN
[11] = test system: CCRF-CEM
[12] = test system: BT-549
[13] = test system: UACC-257
[14] = test system: SW-620
[15] = test system: CAKI-1
[16] = test system: NCI-H23
[17] = test system: TK-10
[18] = test system: SNB-19
[19] = test system: M14
[20] = test system: UACC-62
[21] = test system: SK-OV-3
[22] = test system: HOP-62
[23] = test system: A549
[24] = test system: PC-3
[25] = test system: RPMI-8226
[26] = test system: OVCAR-4
[27] = test system: NCI-H522
[28] = test system: HCT-116
[29] = test system: Malme-3M
[30] = test system: KM12
[31] = test system: K562
[32] = test system: NCI-H226
[33] = test system: RXF 393
[34] = test system: SN12C
[35] = test system: HL-60
[36] = test system: OVCAR-5
[37] = test system: NCI-H460
[38] = test system: EKVX
[39] = test system: Hs-578T
[40] = test system: HCT-15
[41] = test system: OVCAR-3
[42] = test system: SR
[43] = test system: DU-145
[44] = test system: SK-MEL-5
[45] = test system: MDA-MB-435
[46] = test system: LOX IMVI
[47] = test system: COLO 205
[48] = test system: SK-MEL-2
[49] = test system: T47D
[50] = test system: OVCAR-8
[51] = test system: UO-31
[52] = test system: A498
[53] = test system: SK-MEL-28
[54] = test system: SF-268
[55] = test system: MOLT-4
[56] = test system: U-251
[57] = test system: HT-29
[58] = test system: HOP-92
[59] = test system: IGROV-1

## Cc1cc(C)c(C[C@H]2COC(=O)[C@]2(O)Cc2c(C)cc(C)cc2C)c(C)c1
[1]
  GI50: 16.7 µM (inactive)
[2]
  GI50: 23.9 µM (inactive)
[3]
  GI50: 16.9 µM (inactive)
[4]
  GI50: 20.8 µM (inactive)
[5]
  GI50: 18.1 µM (inactive)
[6]
  GI50: 19.8 µM (inactive)
[7]
  GI50: 15.6 µM (inactive)
[8]
  GI50: 13.7 µM (inactive)
[9]
  GI50: 19.4 µM (inactive)
[10]
  GI50: 18.2 µM (inactive)
[11]
  GI50: 31.7 µM (inactive)
[12]
  GI50: 18.4 µM (inactive)
[13]
  GI50: 17.7 µM (inactive)
[14]
  GI50: 20.9 µM (inactive)
[15]
  GI50: 18.6 µM (inactive)
[16]
  GI50: 21 µM (inactive)
[17]
  GI50: 21.6 µM (inactive)
[18]
  GI50: 21.6 µM (inactive)
[19]
  GI50: 18.3 µM (inactive)
[20]
  GI50: 13.7 µM (inactive)
[21]
  GI50: 17.9 µM (inactive)
[22]
  GI50: 19.2 µM (inactive)
[23]
  GI50: 15.7 µM (inactive)
[24]
  GI50: 15.1 µM (inactive)
[25]
  GI50: 25.2 µM (inactive)
[26]
  GI50: 12.9 µM (inactive)
[27]
  GI50: 18.7 µM (inactive)
[28]
  GI50: 20.7 µM (inactive)
[29]
  GI50: 13.9 µM (inactive)
[30]
  GI50: 18.3 µM (inactive)
[31]
  GI50: 25.2 µM (inactive)
[32]
  GI50: 17 µM (inactive)
[33]
  GI50: 11.2 µM (inactive)
[34]
  GI50: 19.4 µM (inactive)
[35]
  GI50: 14.7 µM (inactive)
[36]
  GI50: 17.1 µM (inactive)
[37]
  GI50: 16.8 µM (inactive)
[38]
  GI50: 12.6 µM (inactive)
[39]
  GI50: 17.7 µM (inactive)
[40]
  GI50: 17.3 µM
[41]
  GI50: 15 µM (inactive)
[42]
  GI50: 41.5 µM (inactive)
[43]
  GI50: 15.2 µM (inactive)
[44]
  GI50: 17 µM (inactive)
[45]
  GI50: 18.3 µM (inactive)
[46]
  GI50: 17.8 µM (inactive)
[47]
  GI50: 18.7 µM (inactive)
[48]
  GI50: 23.1 µM (inactive)
[49]
  GI50: 4.67 µM (inactive)
[50]
  GI50: 23.6 µM (inactive)
[51]
  GI50: 19.6 µM (inactive)
[52]
  GI50: 14.6 µM (inactive)
[53]
  GI50: 24.7 µM (inactive)
[54]
  GI50: 14.9 µM (inactive)
[55]
  GI50: 26.7 µM (inactive)
[56]
  GI50: 18.9 µM (inactive)
[57]
  GI50: 27.9 µM (inactive)
[58]
  GI50: 14.2 µM (inactive)

## Brc1ccc2c(-c3csc(-c4c[nH]c5ccc(Br)cc45)n3)c[nH]c2c1
[1]
  GI50: 3.42 µM (inactive)
[2]
  GI50: 3.87 µM (inactive)
[3]
  GI50: 3.19 µM (inactive)
[4]
  GI50: 2.31 µM (inactive)
[5]
  GI50: 3.82 µM (inactive)
[6]
  GI50: 5.15 µM (inactive)
[7]
  GI50: 4.83 µM (inactive)
[8]
  GI50: 2.32 µM (inactive)
[9]
  GI50: 10.2 µM (inactive)
[10]
  GI50: 2.96 µM (inactive)
[11]
  GI50: 3.79 µM (inactive)
[12]
  GI50: 12.6 µM (inactive)
[13]
  GI50: 7.94 µM (inactive)
[14]
  GI50: 3.65 µM (inactive)
[15]
  GI50: 3.01 µM (inactive)
[16]
  GI50: 2.87 µM (inactive)
[17]
  GI50: 3.94 µM (inactive)
[18]
  GI50: 4.09 µM (inactive)
[19]
  GI50: 3.12 µM (inactive)
[20]
  GI50: 3.18 µM (inactive)
[21]
  GI50: 11.2 µM (inactive)
[22]
  GI50: 12.1 µM (inactive)
[23]
  GI50: 4.2 µM (inactive)
[24]
  GI50: 4.81 µM (inactive)
[25]
  GI50: 3.44 µM (inactive)
[26]
  GI50: 6.9 µM (inactive)
[27]
  GI50: 2.11 µM (inactive)
[28]
  GI50: 3.64 µM (inactive)
[29]
  GI50: 5.4 µM (inactive)
[30]
  GI50: 2.42 µM (inactive)
[31]
  GI50: 3.53 µM (inactive)
[32]
  GI50: 3.42 µM (inactive)
[33]
  GI50: 3.02 µM (inactive)
[34]
  GI50: 5.92 µM (inactive)
[35]
  GI50: 5.22 µM (inactive)
[36]
  GI50: 2.44 µM (inactive)
[37]
  GI50: 2.44 µM (inactive)
[38]
  GI50: 1.27 µM (inactive)
[39]
  GI50: 5.78 µM (inactive)
[40]
  GI50: 3.38 µM
[41]
  GI50: 6 µM (inactive)
[42]
  GI50: 3.89 µM (inactive)
[43]
  GI50: 3.86 µM (inactive)
[44]
  GI50: 3.65 µM (inactive)
[45]
  GI50: 4.46 µM (inactive)
[46]
  GI50: 1.94 µM (inactive)
[47]
  GI50: 2.88 µM (inactive)
[48]
  GI50: 5.35 µM (inactive)
[49]
  GI50: 2.94 µM (inactive)
[50]
  GI50: 5.52 µM (inactive)
[59]
  GI50: 2.43 µM (inactive)
[51]
  GI50: 3.82 µM (inactive)
[52]
  GI50: 3.01 µM (inactive)
[53]
  GI50: 7.59 µM (inactive)
[54]
  GI50: 3.6 µM (inactive)
[55]
  GI50: 2.84 µM (inactive)
[56]
  GI50: 4.26 µM (inactive)
[57]
  GI50: 1.76 µM (inactive)
[58]
  GI50: 3.2 µM (inactive)

## CCC(C)(NC(=O)C(C)NC(=O)OC(C)(C)C)C(=O)NC(C)C(=O)NC(C)(CC)C(=O)ON=C1CCCC1 (centres undefined) (Boc-A[Iva]A[Iva]-X54; configuration not given here)
[1]
  GI50: > 100 µM (inactive)
[3]
  GI50: > 100 µM (inactive)
[5]
  GI50: > 100 µM (inactive)
[6]
  GI50: > 100 µM (inactive)
[7]
  GI50: > 100 µM (inactive)
[8]
  GI50: > 100 µM (inactive)
[9]
  GI50: > 100 µM (inactive)
[11]
  GI50: > 100 µM (inactive)
[12]
  GI50: > 100 µM (inactive)
[15]
  GI50: > 100 µM (inactive)
[16]
  GI50: > 100 µM (inactive)
[18]
  GI50: > 100 µM (inactive)
[19]
  GI50: > 100 µM (inactive)
[20]
  GI50: > 100 µM (inactive)
[21]
  GI50: > 100 µM (inactive)
[22]
  GI50: > 100 µM (inactive)
[24]
  GI50: > 100 µM (inactive)
[25]
  GI50: > 100 µM (inactive)
[27]
  GI50: > 100 µM (inactive)
[28]
  GI50: > 100 µM (inactive)
[29]
  GI50: > 100 µM (inactive)
[30]
  GI50: > 100 µM (inactive)
[31]
  GI50: 31.1 µM (inactive)
[32]
  GI50: > 100 µM (inactive)
[33]
  GI50: 16.7 µM (inactive)
[34]
  GI50: > 100 µM (inactive)
[35]
  GI50: > 100 µM (inactive)
[36]
  GI50: > 100 µM (inactive)
[37]
  GI50: > 100 µM (inactive)
[39]
  GI50: > 100 µM (inactive)
[40]
  GI50: > 100 µM
[41]
  GI50: > 100 µM (inactive)
[42]
  GI50: > 100 µM (inactive)
[43]
  GI50: > 100 µM (inactive)
[44]
  GI50: > 100 µM (inactive)
[45]
  GI50: > 100 µM (inactive)
[47]
  GI50: > 100 µM (inactive)
[48]
  GI50: > 100 µM (inactive)
[49]
  GI50: > 100 µM (inactive)
[50]
  GI50: > 100 µM (inactive)
[59]
  GI50: > 100 µM (inactive)
[51]
  GI50: > 100 µM (inactive)
[52]
  GI50: > 100 µM (inactive)
[53]
  GI50: > 100 µM (inactive)
[55]
  GI50: 29.9 µM (inactive)
[56]
  GI50: > 100 µM (inactive)
[58]
  GI50: > 100 µM (inactive)

Reference: ChEMBL document CHEMBL1201862, “PubChem BioAssay data set” (2004)
